In PMC6526117 (Experimental Neurobiology, 2019):
Positions count from the first letter of the chain named.

Key:
Assay in all cases: whole-cell patch clamp, SCAM block of ICl,swell
Format in all cases: cell-based
Settings in all cases: read-out: % block
TTYH1 [1] = molecular target: T1, TTYH1 (Mus musculus, UniProt Q9D3A9, R165C)
T1 sequence (Q9D3A9 1-450 R165C): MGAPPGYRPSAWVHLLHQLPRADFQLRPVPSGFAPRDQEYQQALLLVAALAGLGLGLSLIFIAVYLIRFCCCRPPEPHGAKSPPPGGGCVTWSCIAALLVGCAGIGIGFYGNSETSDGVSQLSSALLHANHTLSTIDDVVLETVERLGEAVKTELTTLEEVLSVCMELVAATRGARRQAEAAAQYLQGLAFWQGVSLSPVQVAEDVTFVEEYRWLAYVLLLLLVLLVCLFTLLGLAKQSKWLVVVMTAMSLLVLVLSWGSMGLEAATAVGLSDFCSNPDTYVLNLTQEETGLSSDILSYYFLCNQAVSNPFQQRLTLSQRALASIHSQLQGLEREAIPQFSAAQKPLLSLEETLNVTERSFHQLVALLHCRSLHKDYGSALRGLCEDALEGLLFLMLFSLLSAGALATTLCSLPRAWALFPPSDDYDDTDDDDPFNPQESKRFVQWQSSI

TTYH1 [2] = molecular target: T2, TTYH1 (Mus musculus, UniProt Q9D3A9, V164C)
T2 sequence (Q9D3A9 1-450 V164C): T1 sequence (Q9D3A9 1-450 R165C) with V164C, C165R

TTYH1 [3] = molecular target: T3, TTYH1 (Mus musculus, UniProt Q9D3A9)
T3 sequence (Q9D3A9 1-450): T1 sequence (Q9D3A9 1-450 R165C) with C165R

inhibition at 100000 µM (TTYH1 [1]): 36.6% | inhibition at 100000 µM (TTYH1 [2]): 28.9% | inhibition at 100000 µM (TTYH1 [3]): 9.01%
Structure (SMILES): CS(=O)(=O)SCCS(=O)(=O)O [MTSES]
